Data as given in article PMC4535766, “Antiprotozoal Activity Profiling of Approved Drugs: A Starting Point toward Drug Repositioning” (PLoS ONE, 2015).
Where two headings read alike, the source gives them in different places.

Tests used:
[1] = tested on: T. b. rhodesiense strain STIB 900, trypomastigotes; experiment: In vitro activity against T. b. rhodesiense, serial drug dilution assay; conditions: for IC50: Trypanosoma brucei, read-out: IC50 T. b. rhod.
Description: (§1) Drug stock solutions (10mg/ml) were in DMSO (100%). […] Selectivity index (SI) was calculated as IC50 L6 cells/IC50 parasite.

[2] = tested on: T. cruzi, strain Tulahuen C4, intracellular amastigotes; experiment: microbe, parasite or virus in culture; conditions: Trypanosoma cruzi, TULAHUEN, read-out: IC50 T. cruzi
Description: as §1

in vitro = conditions: rat
Description: as §1

[3] = tested on: axenic amastigotes of L. donovani, strain MHOM-ET-67/L82; experiment: In vitro activity against L. donovani axenic amastigotes, serial drug dilution assay; assay type: cell-based, Leishmania donovani; conditions: Leishmania donovani, axenic amastigotes, strain MHOM-ET-67/L82; means of two independent assays; read-out: IC50 L. don. axen.
Description: as §1

[4] = tested on: intracellular amastigotes of L. donovani strain MHOM-ET-67/L82; experiment: Activity against Leishmania donovani intracellular amastigotes in mouse peritoneal macrophages; conditions: Leishmania donovani, Peritoneal macrophage, in Mus musculus, 96 h, read-out: IC50 L. don. intracell
Description: After 24 h 1.2 x 10^5 amastigote L. donovani in 100 μl were added. The amastigotes were taken from an axenic culture grown at pH 5.4. Four hours later, the medium containing free amastigote forms was removed and replaced by fresh medium. The next day the medium was replaced by medium with or without a serial drug dilution of seven 3-fold dilution steps covering a range from 30 to 0.04 μg/ml. Parasite growth in the presence of the drug was compared to control wells. After 96 h of incubation, the medium was removed and the slides fixed with methanol for 10 min followed by staining with a 10% Giemsa solution. Infected and non-infected macrophages were counted for the control cultures and those exposed to the serial drug dilutions. The infection rates were determined. The results were expressed as a percentage reduction in parasite burden compared to control wells, and the IC50 was calculated by linear regression analysis. The collection of mouse peritoneal macrophages was done at the Swiss Tropical and Public Health Institute (Basel) according to the rules and regulations for the protection of animal rights ("Tierschutzverordnung") of the Swiss "Bundesamt für Veterinärwesen".

P. falciparum strain K1 = experiment: In vitro activity against P. falciparum, serial drug dilution assay; conditions: for IC50: Plasmodium falciparum, K1, read-out: IC50 P. falc. K1; for Activity against P. falciparum (in words): in vitro
Description: as §1

[5] = Cytotoxicity on macrophages infected with L. donovani; assay type: cell-based, mouse; conditions: mouse
[6] = macrophages infected with L. donovani, read-out: IC50 Cytotox. mac.inf.
[7] = infected macrophages, read-out: Cytotox. mac.inf. IC50

Compound	IC50 [1] [µM]	IC50 [2] [µM]	IC50 [3] [µM]	IC50 [4] [µM]	IC50 (in vitro; IC50 Cytotox. L6) [µM]	IC50 at 96 h [5, 6] [µM]	also measured
CCCSc1ccc2nc(NC(=O)OC)[nH]c2c1 [Albendazole]	14.7	12.3	> 113	> 3.77	–	–	IC50 (in vitro): 0.41 µM
NC12CC3CC(CC(C3)C1)C2 [Amantadine]	52.8	371	> 595	> 198	215	> 198	IC50 (P. falciparum strain K1): 5.67 µM
CN(C)CCC=C1c2ccccc2CCc2ccccc21 [Amitriptyline]	3.03	35.1	131	> 10.8	–	36.1	selectivity ratio ([1]; rat, Selectivity index: IC50 Cytotoxicity L6/ IC50 T. b. rhodesiense): 14; IC50 (in vitro): 42.2 µM; IC50 (P. falciparum strain K1): 1.16 µM; Activity against P. falciparum (in words) (P. falciparum strain K1): micromolar range
Clc1ccc2c(c1)C(N1CCNCC1)=Nc1ccccc1O2 [Amoxapine]	–	–	–	–	16.2	31.9	–
O=C(Cn1ccnc1[N+](=O)[O-])NCc1ccccc1 [Benznidazole]	–	1.99	–	–	–	–	–
CCN(CC)CCOc1ccc(C(=C(Cl)c2ccccc2)c2ccccc2)cc1 [Clomiphene]	–	–	–	–	–	–	IC50 (in vitro; Cytotox. L6 IC50): 13.1 µM; MCC at 96 h [5, 7]: 24.6 µM
CN(C)CCCN1c2ccccc2CCc2ccc(Cl)cc21 [Clomipramine]	–	–	–	–	19.8	31.8	–
CC(C)CN(C[C@@H](O)[C@H](Cc1ccccc1)NC(=O)O[C@H]1CO[C@H]2OCC[C@H]21)S(=O)(=O)c1ccc(N)cc1 [Darunavir]	31.4	92.2	125	> 54.8	–	–	IC50 (P. falciparum strain K1): 46.9 µM
CNCCC(Oc1ccc(C(F)(F)F)cc1)c1ccccc1 (stereo not drawn) [Fluoxetine]	–	–	–	–	15	–	Activity against P. falciparum (in words) (P. falciparum strain K1): micromolar range; MCC at 96 h [5, 6]: 32.3 µM
OCCN1CCN(CCCN2c3ccccc3Sc3ccc(C(F)(F)F)cc32)CC1 [Fluphenazine]	–	–	–	–	11.5	22.9	Activity against P. falciparum (in words) (P. falciparum strain K1): micromolar range
CCC(C)n1ncn(-c2ccc(N3CCN(c4ccc(OCC5COC(Cn6cncn6)(c6ccc(Cl)cc6Cl)O5)cc4)CC3)cc2)c1=O (stereo not drawn) [Itraconazole]	8.53	0.004	2.42	> 1.42	1.11	–	IC50 (P. falciparum strain K1): 1.37 µM
CC(=O)N1CCN(c2ccc(OCC3COC(Cn4ccnc4)(c4ccc(Cl)cc4Cl)O3)cc2)CC1 (stereo not drawn) [Ketoconazole]	33.1	0.27	38.8	> 18.8	–	–	IC50 (in vitro): 51 µM
Nc1nc(N)nc(Nc2ccc([As]3SCC(CO)S3)cc2)n1 (stereo not drawn) [Melarsoprol]	0.01	–	–	–	–	–	–
CCCCCCCCCCCCCCCCOP(=O)([O-])OCC[N+](C)(C)C [Miltefosine]	–	–	–	1.21	–	–	–
Cc1ncc([N+](=O)[O-])n1CC(O)CCl (stereo not drawn) [Ornidazole]	25.9	130	> 136	> 136	> 408	> 136	–
CC(C)c1nc(CN(C)C(=O)N[C@H](C(=O)N[C@@H](Cc2ccccc2)C[C@H](O)[C@H](Cc2ccccc2)NC(=O)OCc2cncs2)C(C)C)cs1 [Ritonavir]	4.3	20.7	8.97	> 41.6	–	–	IC50 (P. falciparum strain K1): 16.2 µM
Cn1c([N+](=O)[O-])cnc1N1CCN(S(C)(=O)=O)C1=O [Satranidazole]	18.7	19.1	10.4	> 104	–	–	IC50 (in vitro; L6 cells, IC50 Cytotox. L6, L6 cells, means of two independent assays): > 311 µM; IC50 at 96 h ([5]; mouse peritoneal macrophages infected with L. donovani, macrophages infected with L. donovani, read-out: IC50 Cytotox. mac.inf.): > 104 µM
Cc1ncc([N+](=O)[O-])n1CC(C)O (stereo not drawn) [Secnidazole]	28.7	> 161	> 161	> 161	> 483	> 161	–
CSc1ccc2c(c1)N(CCC1CCCCN1C)c1ccccc1S2 (stereo not drawn) [Thioridazine]	–	–	–	–	5.39	–	MCC at 96 h [5, 7]: 25.8 µM
CCS(=O)(=O)CCn1c([N+](=O)[O-])cnc1C [Tinidazole]	16.6	> 81	> 81	> 81	> 243	> 81	Activity against T. b. rhodesiense (in words) ([1]; in vitro): inactive
